Test results from publication PMC7046553, “Backbone Cyclization and Dimerization of LL-37-Derived Peptides Enhance Antimicrobial Activity and Proteolytic Stability” (Frontiers in Microbiology, 2020).
In brackets after ≈: the same amount, converted by molar mass. Like-named read-outs stand apart in the source and are kept apart here. Where a SMILES comes first, the peptide text is derived from it.

Columns and labels:
[1] = tested on: Staphylococcus aureus ATCC 29213; details: ATCC 29213, 5 h
Procedure: (§1) The three bacterial strains: Escherichia coli ATCC 25922, Pseudomonas aeruginosa ATCC 27853 Staphylococcus aureus ATCC 29213 as well as the fungal strain Candida albicans ATCC 90028 derived from clinical wound infections were obtained from the Department of Clinical Bacteriology at Lund University Hospital.
(§2) Antimicrobial activities of the peptides were evaluated using the two-step microdilution assay ([Strömstedt et al., 2017]), which is designed for testing AMPs without activity-inhibiting components. Briefly, the microbial suspension was washed twice with 10 mM Tris buffer (set to pH 7.4 at 37°C). 96-well plates (U-shaped, untreated polystyrene) were prepared with peptide 2-fold serial dilutions in Tris buffer. The culture density was quantified by OD600, diluted in Tris buffer and 50,000 cells aliquoted to each well in the 96-well plate to a final 100 μl volume. After 5 h of aerobic incubation at 37°C, 5 μl of 20% TSB medium was added to each well (resulting in 1% TSB) and the plates were re-incubated. Growth-inhibition was monitored when controls produced pellet sizes of 2 mm in diameter (close to growth saturation), which equates to 5, 8, 10, and 12 h for E. coli, S. aureus, P. aeruginosa, and C. albicans, respectively. […] The MIC-values in Table 1, are medians from triplicate experiments, while the data presented in the Figure 2 are the same values relative to that of KR-12.

[2] = tested on: Pseudomonas aeruginosa ATCC 27853
Procedure: as §1, §2

[3] = tested on: Escherichia coli ATCC 25922; details: ATCC 25922, 5 h
Procedure: as §1, §2

[4] = tested on: Candida albicans ATCC 90028
Procedure: as §1, §2

[5] = median of triplicate experiments

| SMILES | MIC S. aureus [1] [µM] | MIC P. aeruginosa ([2]; ATCC 27853, 5 h) [µM] | MIC E. coli [3] [µM] | MIC C. albicans ([4]; ATCC 90028, 5 h) [µM] | MIC P. aeruginosa [2, 5] [µM] | MIC C. albicans [4, 5] [µM] |
| --- | --- | --- | --- | --- | --- | --- |
| CC[C@H](C)[C@@H]1NC(=O)[C@H](CCCCN)NC(=O)[C@H](CC(=O)O)NC(=O)[C@H](Cc2ccccc2)NC(=O)[C@H](CC(C)C)NC(=O)[C@H](CCCNC(=N)N)NC(=O)CNC(=O)CNC(=O)[C@H](CS)NC(=O)CNC(=O)[C@H](CCCCN)NC(=O)[C@H](CCCNC(=N)N)NC(=O)[C@H]([C@@H](C)CC)NC(=O)[C@H](C(C)C)NC(=O)[C@H](CCC(N)=O)NC(=O)[C@H](CCCNC(=N)N)NC(=O)[C@H]([C@@H](C)CC)NC(=O)[C@H](CCCCN)NC(=O)[C@H](CC(=O)O)NC(=O)[C@H](Cc2ccccc2)NC(=O)[C@H](CC(C)C)NC(=O)[C@H](CCCNC(=N)N)NC(=O)CNC(=O)CNC(=O)[C@H](C)NC(=O)CNC(=O)[C@H](CCCCN)NC(=O)[C@H](CCCNC(=N)N)NC(=O)[C@H]([C@@H](C)CC)NC(=O)[C@H](C(C)C)NC(=O)[C@H](CCC(N)=O)NC(=O)[C@H](CCCNC(=N)N)NC1=O [Peptide 2retro-cd4] (cyclo(CGGRLFDKIRQVIRKGAGGRLFDKIRQVIRKG)) | 1.25 (≈ 4.53 µg/mL) | 1.25 (≈ 4.53 µg/mL) | 0.625 (≈ 2.27 µg/mL) | 2.5 (≈ 9.06 µg/mL) | – | – |
| CC[C@H](C)[C@@H]1NC(=O)[C@H](CCCNC(=N)N)NC(=O)[C@H](CCC(N)=O)NC(=O)[C@H](C(C)C)NC(=O)[C@H]([C@@H](C)CC)NC(=O)[C@H](CCCNC(=N)N)NC(=O)[C@H](CCCCN)NC(=O)CNC(=O)[C@H](C)NC(=O)CNC(=O)[C@H](CCCNC(=N)N)NC(=O)[C@H](CC(C)C)NC(=O)[C@H](Cc2ccccc2)NC(=O)[C@H](CC(=O)O)NC(=O)[C@H](CCCCN)NC(=O)[C@H]([C@@H](C)CC)NC(=O)[C@H](CCCNC(=N)N)NC(=O)[C@H](CCC(N)=O)NC(=O)[C@H](C(C)C)NC(=O)[C@H]([C@@H](C)CC)NC(=O)[C@H](CCCNC(=N)N)NC(=O)[C@H](CCCCN)NC(=O)CNC(=O)[C@H](C)NC(=O)CNC(=O)[C@H](CCCNC(=N)N)NC(=O)[C@H](CC(C)C)NC(=O)[C@H](Cc2ccccc2)NC(=O)[C@H](CC(=O)O)NC(=O)[C@H](CCCCN)NC1=O [cd3] (cyclo(AGKRIVQRIKDFLRGAGKRIVQRIKDFLRG)) | 1.25 (≈ 4.35 µg/mL) | 0.625 (≈ 2.17 µg/mL) | 0.625 (≈ 2.17 µg/mL) | 1.25 (≈ 4.35 µg/mL) | – | – |
| CC[C@H](C)[C@@H]1NC(=O)[C@H](CCCCN)NC(=O)[C@H](CC(=O)O)NC(=O)[C@H](Cc2ccccc2)NC(=O)[C@H](CC(C)C)NC(=O)[C@H](CCCNC(=N)N)NC(=O)CNC(=O)CNC(=O)[C@H](C)NC(=O)CNC(=O)[C@H](CCCNC(=N)N)NC(=O)[C@H](CC(C)C)NC(=O)[C@H](Cc2ccccc2)NC(=O)[C@H](CC(=O)O)NC(=O)[C@H](CCCCN)NC(=O)[C@H]([C@@H](C)CC)NC(=O)[C@H](CCCNC(=N)N)NC(=O)[C@H](CCC(N)=O)NC(=O)[C@H](C(C)C)NC(=O)[C@H]([C@@H](C)CC)NC(=O)[C@H](CCCNC(=N)N)NC(=O)[C@H](CCCCN)NC(=O)CNC(=O)CNC(=O)[C@H](C)NC(=O)CNC(=O)[C@H](CCCCN)NC(=O)[C@H](CCCNC(=N)N)NC(=O)[C@H]([C@@H](C)CC)NC(=O)[C@H](C(C)C)NC(=O)[C@H](CCC(N)=O)NC(=O)[C@H](CCCNC(=N)N)NC1=O [retro-cd4] (cyclo(AGGKRIVQRIKDFLRGAGGRLFDKIRQVIRKG)) | – | – | – | – | 0.625 (≈ 2.25 µg/mL) | 2.5 (≈ 8.98 µg/mL) |
